According to patent publication US20260274829A1, “NEW E3 UBIQUITIN LIGASE LIGAND, PROTEIN DEGRADATION AGENT AND USE THEREOF” (GLUETACS THERAPEUTICS (SHANGHAI) CO., LTD., priority 2023, published 2026):

Target: T1, human Cereblon WT GST-tagged protein (Homo sapiens, UniProt Q96SW2)
T1 construct: purchased CISBIO 64BDCRBNPEH
Assay: CRBN binding, HTRF CEREBLON BINDING kit
Details: CRBN binding, HTRF CEREBLON BINDING kit
Description: The CEREBLON BINDING kits (specification: 10,000 tests; product number: Catalog #64BDCRBNPEH; CISBIO company) was used to determine the CRBN binding ability of the compounds to be tested through a HTRF method (homogeneous time-resolved fluorescence). The specific methods are as follows: • 1. […] Then, 2.5 μL of human Cereblon WT GST-tagged protein solution was added to each well. Finally, 5 μL of the thoroughly mixed Thalidomide-Re reagent and GST Eu antibody working solution were added to each of the aforementioned wells. […] The blank control wells were sequentially added with 2.5 μL of diluent #9 (1×) solution, 2.5 μL of binding buffer, and 5 μL of thoroughly mixed Thalidomide-Re reagent and GST Eu antibody working solution. • 4. After sealing and incubating the solutions in the aforementioned wells at room temperature for 3 hours, the absorbance values at emission wavelengths of 620 nm and 665 nm were detected by the HTRF method using a Spark microplate reader (V3.1 SP1).
The corresponding CRBN binding inhibition rate was calculated using the following method:
[formula] [formula] [formula] • Note: OD 665 nmcompound is the absorbance value of each well of the compounds to be tested of the present disclosure at an emission wavelength of 665 nm. • OD 620 nmcompound is the absorbance value of each well of the compounds to be tested of the present disclosure at an emission wavelength of 620 nm. • OD 665 nmcontrol is the absorbance value of the blank control well at an emission wavelength of 665 nm. • OD 620 nmcontrol is the absorbance value of the blank control well at an emission wavelength of 620 nm. • OD 665 nmStd0 is the absorbance value of the solvent control well at an emission wavelength of 665 nm. • OD 620 nmStd0 is the absorbance value of the solvent control well at an emission wavelength of 620 nm.

T1 sequence (Q96SW2 whole entry): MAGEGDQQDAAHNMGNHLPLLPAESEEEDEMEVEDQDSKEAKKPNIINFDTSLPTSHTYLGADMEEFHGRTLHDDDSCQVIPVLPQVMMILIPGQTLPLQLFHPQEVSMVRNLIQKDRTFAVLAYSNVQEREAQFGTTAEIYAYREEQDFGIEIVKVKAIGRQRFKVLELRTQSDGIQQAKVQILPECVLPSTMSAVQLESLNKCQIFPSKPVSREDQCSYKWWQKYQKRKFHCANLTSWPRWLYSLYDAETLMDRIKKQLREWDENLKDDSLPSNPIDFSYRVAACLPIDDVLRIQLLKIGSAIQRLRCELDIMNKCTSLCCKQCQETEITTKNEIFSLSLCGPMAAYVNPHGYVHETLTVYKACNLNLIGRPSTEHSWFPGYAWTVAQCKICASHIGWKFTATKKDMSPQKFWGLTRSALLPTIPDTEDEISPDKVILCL

CN(C)C(=O)c1cc2cnc(Nc3ccc(N4CCC(N(C)Cc5ccc(N6CCC(=O)NC6=O)cn5)CC4)cn3)nc2n1C1CCCC1 [GT-06493, 7-cyclopentyl-2-((5-(4-(((5-(2,4-dioxotetrahydropyrimidin-1(2H)-yl)pyridin-2-yl)methyl)(methyl)amino)piperidin-1-yl)pyridin-2-yl)amino)-N,N-dimethyl-7H-pyrrolo[2,3-d]pyrimidine-6-carboxamide] showed an IC50 of 500 to 1000 nM.
For Cc1nc2c(F)cc(-c3nc(Nc4ccc(N5CCC(N(C)Cc6ccc(N7CCC(=O)NC7=O)cc6)CC5)cn4)ncc3F)cc2n1C(C)C [GT-06838, 1-(4-(((1-(6-((5-fluoro-4-(4-fluoro-1-isopropyl-2-methyl-1H-benzo[d]imidazol-6-yl)pyrimidin-2-yl)amino)pyridin-3-yl)piperidin-4-yl)(methyl)amino)methyl)phenyl)dihydropyrimidine-2,4(1H,3H)-dione], the IC50 was 500 to 1000 nM.
Work on CCc1cc2c(cc1N1CCC(N3CCN(Cc4cncc(C5CCC(=O)NC5=O)c4)CC3)CC1)C(C)(C)c1[nH]c3cc(C#N)ccc3c1C2=O (centres unmarked) [GT-07706, 8-(4-(4-((5-(2,6-dioxopiperidin-3-yl)pyridin-3-yl)methyl)piperazin-1-yl)piperidin-1-yl)-9-ethyl-6,6-dimethyl-11-oxo-6,11-dihydro-5H-benzo[b]carbazole-3-carbonitrile] yielded an IC50 of less than 500 nM.
CNC(=O)c1ccc(N2C(=S)N(c3ccc(C#N)c(C(F)(F)F)c3)C(=O)C2(C)C)cc1F [Enzalutamide] was tested, and the IC50 was greater than 10000 nM.
O=C1CCN(c2ccc(CN3CCN(c4ccc(Nc5ncc6nc(Nc7ccccc7)n(C7CCCC7)c6n5)cc4)CC3)nc2)C(=O)N1 [GT-05839, 1-(6-((4-(4-((9-cyclopentyl-8-(phenylamino)-9H-purin-2-yl)amino)phenyl)piperazin-1-yl)methyl)pyridin-3-yl)dihydropyrimidine-2,4(1H,3H)-dione] was tested, and the IC50 was 500 to 1000 nM.
CCc1cc2c(cc1N1CCC(N3CCN(Cc4ccc(C5CCC(=O)NC5=O)cn4)CC3)CC1)C(C)(C)c1[nH]c3cc(C#N)ccc3c1C2=O (centres unmarked) [GT-07705, 8-(4-(4-((5-(2,6-dioxopiperidin-3-yl)pyridin-2-yl)methyl)piperazin-1-yl)piperidin-1-yl)-9-ethyl-6,6-dimethyl-11-oxo-6,11-dihydro-5H-benzo[b]carbazole-3-carbonitrile] was tested, and the IC50 was less than 500 nM.
Work on O=C1CCN(c2cccc(CN3CCN(c4ccc(-c5cc(F)c6c(c5)C(=O)N(C(C(=O)Nc5nccs5)c5ncn7c5CCC7)C6)cc4)CC3)c2)C(=O)N1 (centres unmarked) [GT-06165, 2-(6,7-dihydro-5H-pyrrolo[1,2-c]imidazol-1-yl)-2-(6-(4-(4-(3-(2,4-dioxotetrahydropyrimidin-1(2H)-yl)benzyl)piperazin-1-yl)phenyl)-4-fluoro-1-oxoisoindolin-2-yl)-N-(thiazol-2-yl)acetamide] yielded an IC50 of less than 500 nM.
Work on COc1cc(N2CCC(N3CCN(Cc4ccc(C5CCC(=O)NC5=O)cc4)CC3)CC2)c(C)cc1Nc1ncc(Br)c(Nc2ccc3nccnc3c2P(C)(C)=O)n1 (centres unmarked) [GT-05999, 3-(4-((4-(1-(4-((5-bromo-4-((5-(dimethylphosphoryl)quinoxalin-6-yl)amino)pyrimidin-2-yl)amino)-5-methoxy-2-methylphenyl)piperidin-4-yl)piperazin-1-yl)methyl)phenyl)piperidine-2,6-dione] yielded an IC50 of 1000 to 1900 nM.
With O=C1CCC(Nc2cccc(CN3CCN(C4CCN(c5ccc(Nc6ncc7nc(Nc8ccccc8)n(C8CCCC8)c7n6)cc5)CC4)CC3)c2)C(=O)N1 (centres unmarked) [GT-05943, 3-((3-((4-(1-(4-((9-cyclopentyl-8-(phenylamino)-9H-purin-2-yl)amino)phenyl)piperidin-4-yl)piperazin-1-yl)methyl)phenyl)amino)piperidine-2,6-dione] the IC50 was 500 to 1000 nM.
Work on COc1cc(N2CCC(N(C)Cc3ccc(N4CCC(=O)NC4=O)cn3)CC2)c(C)cc1Nc1ncc(Br)c(Nc2ccc3nccnc3c2P(C)(C)=O)n1 [GT-05952, 1-(6-(((1-(4-((5-bromo-4-((5-(dimethylphosphoryl)quinoxalin-6-yl)amino)pyrimidin-2-yl)amino)-5-methoxy-2-methylphenyl)piperidin-4-yl)(methyl)amino)methyl)pyridin-3-yl)dihydropyrimidine-2,4(1H,3H)-dione] yielded an IC50 of 500 to 1000 nM.
Cc1nc2c(F)cc(-c3nc(Nc4ccc(N5CCC(N6CCN(Cc7cccc(NC8CCC(=O)NC8=O)c7)CC6)CC5)cn4)ncc3F)cc2n1C(C)C (centres unmarked) [GT-06743, 3-((3-((4-(1-(6-((5-fluoro-4-(4-fluoro-1-isopropyl-2-methyl-1H-benzo[d]imidazol-6-yl)pyrimidin-2-yl)amino)pyridin-3-yl)piperidin-4-yl)piperazin-1-yl)methyl)phenyl)amino)piperidine-2,6-dione] gave an IC50 of 1000 to 1900 nM.
Cc1cc(Nc2ncc(Cl)c(Nc3ccccc3S(=O)(=O)C(C)C)n2)c(OC(C)C)cc1C1CCN(Cc2cccc(N3CCC(=O)NC3=O)c2)CC1 [GT-07593, 1-(3-((4-(4-((5-chloro-4-((2-(isopropylsulfonyl)phenyl)amino)pyrimidin-2-yl)amino)-5-isopropoxy-2-methylphenyl)piperidin-1-yl)methyl)phenyl)dihydropyrimidine-2,4(1H,3H)-dione] was tested, and the IC50 was 500 to 1000 nM.
For CN(Cc1cc(C2CCC(=O)NC2=O)cnc1F)C1CCN(c2ccc(-c3cc(F)c4c(c3)C(=O)N(C(C(=O)Nc3nccs3)c3ncn5c3CCC5)C4)cc2)CC1 (centres unmarked) [GT-07560, 2-(6,7-dihydro-5H-pyrrolo[1,2-c]imidazol-1-yl)-2-(6-(4-(4-(((5-(2,6-dioxopiperidin-3-yl)-2-fluoropyridin-3-yl)methyl)(methyl)amino)piperidin-1-yl)phenyl)-4-fluoro-1-oxoisoindolin-2-yl)-N-(thiazol-2-yl)acetamide], the IC50 was less than 500 nM.
Compound COc1cc2nn(C3CCN(Cc4ccc(N5CCC(=O)NC5=O)c(F)c4)CC3)cc2cc1NC(=O)c1cccc(C(F)(F)F)c1 [GT-04751, N-(2-(1-(4-(2,4-dioxotetrahydropyrimidin-1(2H)-yl)-3-fluorobenzyl)piperidin-4-yl)-6-methoxy-2H-indazol-5-yl)-3-(trifluoromethyl)benzamide] has an IC50 of 1000 to 1900 nM.
Compound COc1cc(N2CCC(N3CCN(Cc4cc(C5CCC(=O)NC5=O)cnc4F)CC3)CC2)ccc1Nc1ncc(Cl)c(Nc2ccccc2P(C)(C)=O)n1 (centres unmarked) [GT-07611, 3-(5-((4-(1-(4-((5-chloro-4-((2-(dimethylphosphoryl)phenyl)amino)pyrimidin-2-yl)amino)-3-methoxyphenyl)piperidin-4-yl)piperazin-1-yl)methyl)-6-fluoropyridin-3-yl)piperidine-2,6-dione] has an IC50 of 500 to 1000 nM.
In the case of COc1cc2nn(C3CCN(Cc4cccc(N5CCC(=O)NC5=O)c4)CC3)cc2cc1NC(=O)c1cccc(C(F)(F)F)n1 [GT-04774, N-(2-(1-(3-(2,4-dioxotetrahydropyrimidin-1(2H)-yl)benzyl)piperidin-4-yl)-6-methoxy-2H-indazol-5-yl)-6-(trifluoromethyl)picolinamide], the IC50 is reported as 1000 to 1900 nM.
O=C1CCC(Nc2cccc(CN3CCN(c4ccc(Nc5ncc6nc(Nc7ccccc7)n(C7CCCC7)c6n5)cc4)CC3)c2)C(=O)N1 (centres unmarked) [GT-05841, 3-((3-((4-(4-((9-cyclopentyl-8-(phenylamino)-9H-purin-2-yl)amino)phenyl)piperazin-1-yl)methyl)phenyl)amino)piperidine-2,6-dione] showed an IC50 of less than 500 nM.
With O=C1CCN(c2ccc(CN3CCC(n4cc(NC(=O)c5cnn6ccc(N7CCOCC7)nc56)c(C(F)F)n4)CC3)cc2)C(=O)N1 [GT-05798, N-(3-(difluoromethyl)-1-(1-(4-(2,4-dioxotetrahydropyrimidin-1(2H)-yl)benzyl)piperidin-4-yl)-1H-pyrazol-4-yl)-5-morpholinopyrazolo[1,5-a]pyrimidine-3-carboxamide] the IC50 was less than 500 nM.
O=C1CCC(c2cnc(F)c(CN3C[C@H]4C[C@@H]3CN4c3ccc(-c4cc(F)c5c(c4)C(=O)N(C(C(=O)Nc4nccs4)c4ncn6c4CCC6)C5)cc3)c2)C(=O)N1 (stereo partly drawn) [GT-07562, 2-(6,7-dihydro-5H-pyrrolo[1,2-c]imidazol-1-yl)-2-(6-(4-((1R,4R)-5-((5-(2,6-dioxopiperidin-3-yl)-2-fluoropyridin-3-yl)methyl)-2,5-diazabicyclo[2.2.1]heptan-2-yl)phenyl)-4-fluoro-1-oxoisoindolin-2-yl)-N-(thiazol-2-yl)acetamide] showed an IC50 of less than 500 nM.
Work on CN(Cc1ccnc(C2CCC(=O)NC2=O)c1)C1CCN(c2ccc(-c3cc(F)c4c(c3)C(=O)N(C(C(=O)Nc3nccs3)c3ncn5c3CCC5)C4)cc2)CC1 (centres unmarked) [GT-07473, 2-(6,7-dihydro-5H-pyrrolo[1,2-c]imidazol-1-yl)-2-(6-(4-(4-(((2-(2,6-dioxopiperidin-3-yl)pyridin-4-yl)methyl)(methyl)amino)piperidin-1-yl)phenyl)-4-fluoro-1-oxoisoindolin-2-yl)-N-(thiazol-2-yl)acetamide] yielded an IC50 of 500 to 1000 nM.
